The subject of this series is transplanted tumor of human glioblastoma cell A172. Particulars: 50 mg/kg. The method, then: Then cell concentration was adjusted to 1×10^7/ml with matrigel, then each nude mouse was inoculated subcutaneously with 0.2 ml of cells at its right armpit and recorded as the first day of inoculation. When the tumor grows to be greater than or equal to 100 mm^3, the mice were randomly divided into 11 groups with 6 mice in each group: a model group, a temozolomide group, […], […], […] Each group was continuously administered intragastrically for 30 days with a dose of 20 ml/kg. The mice were sacrificed the next day after drug withdrawal and the indicators were tested. The long diameter and short diameter of the tumor, and the body weight of each mouse were recorded every 3 days from drug administration to nude mouse sacrifice.
The body weight of the nude mice and the long diameter (a) and short diameter (b) of the transplanted tumor were measured every 3 days, and the tumor volume (v), relative tumor volume (RTV) and relative tumor proliferation rate (T/C) are calculated respectively according to the following formulas, wherein V=a×b^2/2; RTV=V/V0 (V0 is the tumor volume before administration, V is the tumor volume before sacrifice), and T/C (%)=treatment group RTV/model control group RTV×100%.
Each mouse was weighed and sacrificed. After the tumor was completely stripped off from the body of the mouse, the non-tumor tissues such as blood stains and fat were removed to weigh the tumor and calculate the tumor growth inhibition rate. The average tumor weight of each group of mice is used as an indicator of efficacy. Tumor growth inhibition rate (%)=(1−the average tumor weight of the treatment group/the average tumor weight of the model group)×100%.

Each structure is given as a SMILES string.

The values below come from US20200163984A1, “USE OF ISOVALERYL SPIRAMYCIN I, II AND/OR III IN MANUFACTURING MEDICAMENT FOR TREATING AND/OR PREVENTING TUMOR, AND MEDICAMENT” (SHENYANG FUYANG PHARMACEUTICAL TECHNOLOGY CO., LTD., priority 2017, published 2020).

`Cn1nnc2c(C(N)=O)ncn2c1=O` [temozolomide, reference compound]: for the setting “A172 nude mice”, the “Inhibition Rate (%)” value was 68.89%, the “Relative Tumor Proliferation Rate (T/C)” value was 61.35%, the “Relative Tumor Volume (RTV)” value amounted to 4.12 ± 2.03 and the “Tumor Weight” value turned out to be 0.43 ± 0.06 g. Further, the “Tumor Volume (mm3) (d 1)” value (A172 nude mice, d1) came to 116.6 ± 10.91 mm3. Besides, the “Tumor Volume (mm3) (d30)” value (A172 nude mice, d30) turned out to be 482.11 ± 89.74 mm3. Besides, under “mouse, in vivo”, the “Body Weight (g) (d1)” value was found to be 21.07 ± 0.57 g and the “Body Weight (g) (d30)” value stood at 19.83 ± 1.24 g.
